From PubChem BioAssay AID504678 (The Scripps Research Institute Molecular Screening Center, 2011) come the findings set out here.

Structures are written as SMILES. Calls of active or inactive are those of the source.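 How the source made its calls: active means compound whose IC50 against bacterial viability is at or below 10 µM; inactive means IC50 above 10 µM.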 Some results are limits rather than exact numbers.

The experiment has as its system E. coli V3065 growth, OD600 absorbance. The experiment in a line: E. coli V3065 growth inhibition, dose response, counter-screen for AddAB recombination inhibitor project, absorbance, OD600 (AID 504678). (Counterscreens check selectivity or assay interference.)
In general, IC50 refers to the midpoint of a concentration-inhibition curve. Turning to `CCn1cc(C(=O)O)c(=O)c2cnc(N3CCN(C(=S)Nc4ccccc4C(F)(F)F)CC3)nc21`, the IC50 is > 39.5 µM (inactive). Regarding `N#Cc1c(NC(=O)c2ccc([N+](=O)[O-])o2)sc2c1CCC2`, the IC50 was > 119 µM (inactive).

As to `NC(=O)c1ccsc1NC(=O)COC(=O)c1ccc([N+](=O)[O-])o1`, the IC50 is > 119 µM (inactive). Next, `O=C(OCC(=O)c1cccs1)c1ccc([N+](=O)[O-])o1`: > 119 µM (inactive); `Cc1cccnc1NC(=O)c1ccc([N+](=O)[O-])o1`: 39.5 µM (inactive).

With `O=C(Nc1ncccn1)c1ccc([N+](=O)[O-])o1`, the IC50 was 33 µM (inactive). Regarding `O=C(NCc1cccnc1)c1ccc([N+](=O)[O-])o1`, the IC50 was > 39.5 µM (inactive). Consider `Cc1ccc2nc(/C(C#N)=C\c3ccc([N+](=O)[O-])o3)[nH]c2c1`, for which the IC50 was > 119 µM (inactive). Consider `O=C(Nc1cccc(NC(=O)c2ccccc2Cl)c1)c1ccc([N+](=O)[O-])o1`, for which the IC50 is > 119 µM (inactive). Turning to `CC(=O)Nc1ccc2nc(NC(=O)c3ccc([N+](=O)[O-])o3)sc2c1`, the IC50 was > 119 µM (inactive). `O=C(Nc1ccc(N2CCOCC2)cc1)c1ccc([N+](=O)[O-])o1`: the IC50 is 17.3 µM (inactive). The same measure for `C=CCn1c(Sc2ncc([N+](=O)[O-])s2)n[nH]c1=O`: 20.4 µM (inactive).
